Here are results for four compounds from patent US5304470A, “Process for the enzymatic preparation of protected and unprotected di- and oligopeptides in aqueous solutions” (Forschungszentrum Juelich GmbH, priority 1991, dated 1994).

Excerpt in the data set: (§1) The ethyl ester of tyrosine was reacted.
as §1, §1
In turn, `CCOC(=O)[C@H](Cc1ccc(O)cc1)NC(=O)/C=C\C(=O)O` [Mal-Tyr-OEt] returned a solubility in water of more than 600 mM.

As to `CCOC(=O)[C@H](Cc1c[nH]c2ccccc12)NC(=O)/C=C\C(=O)O` [Mal-Trp-OEt], the solubility in water is listed as more than 700 mM.

The compound `CCOC(=O)C(CCCNC(=N)N)NC(=O)C=CC(=O)O` (stereo not drawn) [Mal-Arg-OEt] displayed a solubility in water of more than 1000 mM.

Turning to `CCOC(=O)C(Cc1ccccc1)NC(=O)C=CC(=O)O` (stereo not drawn) [Mal-Phe-OEt], the solubility in water was more than 700 mM.
